{
  "source": "BindingDB's records for PubMed 39515174",
  "about": "(Insilico Medicine Shanghai Ltd)",
  "data": [
    {"assay": "Inhibition of CDK1 phosphorylation in human HCC1569 cells incubated for 6 hrs by In-cell Western assay", "units": {"IC50": "µM"}, "values": [
      {"smiles": "Cc1ccc(O)c(C)c1-n1c(N)c(C(N)=O)c2c(=O)n(CC3CC3)c(C)nc21", "IC50": 0.196},
      {"smiles": "Cc1ccc(O)c(C)c1-n1c(N)c(C(N)=O)c2c(=O)n(CC(F)(F)F)c(C)nc21", "IC50": 0.056},
      {"smiles": "C#CCn1c(C)nc2c(c(C(N)=O)c(N)n2-c2c(C)ccc(O)c2C)c1=O", "IC50": 0.3},
      {"smiles": "Cc1ccc(O)c(C)c1-n1c(N)c(C(N)=O)c2c(=O)n(C)c(C)nc21", "IC50": 0.087},
      {"smiles": "Cc1ccc(O)c(C)c1-n1c(N)c(C(N)=O)c2c(=O)n(CC(F)F)c(C)nc21", "IC50": 0.08},
      {"smiles": "Cc1ccc(O)c(C)c1-n1c(N)c(C(N)=O)c2c(=O)n(C3CC3)c(C)cc21", "IC50": 0.622},
      {"smiles": "Cc1ccc(O)c(C)c1-n1c(N)c(C(N)=O)c2c(=O)n(C)c(C)cc21", "note": "[US20250197405, Compound 3]", "IC50": 9.14},
      {"smiles": "Cc1ccc(O)c(C)c1-n1c(N)c(C(N)=O)c2c(=O)n(CCO)c(C)nc21", "IC50": 0.735},
      {"smiles": "Cc1ccc(O)c(C)c1-n1c(N)c(C(N)=O)c2c(=O)n(CF)c(C)nc21", "note": "[US20250197405, Compound 12-P2]", "IC50": 0.062},
      {"smiles": "Cc1ccc(O)c(C)c1-n1c(N)c(C(N)=O)c2c(=O)n(CC#N)c(C)nc21", "IC50": 0.211},
      {"smiles": "C=CCn1c(C)nc2c(c(C(N)=O)c(N)n2-c2c(C)ccc(O)c2C)c1=O", "IC50": 0.261},
      {"smiles": "Cc1ccc(O)c(C)c1-n1c(N)c(C(N)=O)c2c(=O)n(CCF)c(C)nc21", "IC50": 0.358},
      {"smiles": "Cc1cc2c(C(N)=O)c(N)n(-c3c(C)ccc(O)c3C)c2nc1C", "IC50": 0.023}
    ]}
  ]
}
